Source: PubChem BioAssay (NCI)
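Here, GI50 denotes the concentration required for 50% inhibition of growth. TGI: concentration producing complete growth inhibition.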

Experiments:
Experiment in all cases: DTP human tumour cell line panel, 384-well format
[1] = system: NCI-H522 lung
[2] = system: NCI/ADR-RES ovarian
[3] = system: OVCAR-8 ovarian
[4] = system: T-47D breast
[5] = system: A498 renal
[6] = system: OVCAR-5 ovarian
[7] = system: CCRF-CEM leukemia
[8] = system: ACHN renal
[9] = system: TK-10 renal
[10] = system: SW-620 colon
[11] = system: SF-268 CNS
[12] = system: NCI-H23 lung
[13] = system: SR leukemia
[14] = system: HOP-62 NSCLC
[15] = system: EKVX NSCLC
[16] = system: MDA-MB-468 breast
[17] = system: COLO 205 colon
[18] = system: U251 glioblastoma
[19] = system: HOP-92 NSCLC
[20] = system: SK-MEL-28 melanoma
[21] = system: NCI-H226 lung
[22] = system: A549 NSCLC
[23] = system: SF-539 CNS
[24] = system: PC-3 prostate
[25] = system: 786-0 renal
[26] = system: CAKI-1 renal
[27] = system: SNB-75 CNS
[28] = system: RPMI-8226 leukemia
[29] = system: SK-MEL-5 melanoma
[30] = system: HS 578T breast

SMILES: C=CC(=O)N1CCN(c2nc(=O)n(-c3c(C)ccnc3C(C)C)c3nc(-c4c(O)cccc4F)c(F)cc23)[C@@H](C)C1
- TGI [1]: 43.2 µM
- GI50 [2]: > 100 µM
- TGI [2]: > 100 µM
- GI50 [3]: 19.7 µM
- TGI [3]: 36.6 µM
- GI50 [4]: > 81.3 µM
- TGI [4]: > 100 µM
- GI50 [5]: 31.1 µM
- TGI [5]: > 82.8 µM
- GI50 [6]: > 100 µM
- TGI [6]: > 100 µM
- GI50 [7]: 18.8 µM
- TGI [7]: 34.2 µM
- GI50 [8]: 30.2 µM
- TGI [8]: > 68.2 µM
- GI50 [9]: 46.2 µM
- TGI [9]: > 100 µM
- GI50 [10]: 36.8 µM
- TGI [10]: > 100 µM
- GI50 [11]: 27.8 µM
- TGI [11]: 79.8 µM
- TGI [12]: 0.592 µM
- GI50 [13]: 6.68 µM
- TGI [13]: 18.9 µM
- GI50 [14]: 0.0543 µM
- TGI [14]: 26 µM
- GI50 [15]: 37.1 µM
- TGI [15]: > 100 µM
- GI50 [16]: 13 µM
- TGI [16]: 37.2 µM
- GI50 [17]: 24.7 µM
- TGI [17]: 58.8 µM
- GI50 [18]: 22 µM
- TGI [18]: 52.6 µM
- GI50 [19]: 48.6 µM
- TGI [19]: > 100 µM
- GI50 [20]: > 100 µM
- TGI [20]: > 100 µM
- GI50 [21]: 20.5 µM
- TGI [21]: 52.2 µM
- GI50 [22]: 32.5 µM
- TGI [22]: > 85.6 µM
- GI50 [23]: 17.4 µM
- TGI [23]: 33.3 µM
- GI50 [24]: 35.9 µM
- TGI [24]: > 94.4 µM
- GI50 [25]: 21.4 µM
- TGI [25]: 44.4 µM
- GI50 [26]: 30.9 µM
- TGI [26]: > 89.7 µM
- GI50 [27]: 54.2 µM
- TGI [27]: 97.5 µM
- GI50 [28]: 16.6 µM
- TGI [28]: 32.5 µM
- GI50 [29]: 21.6 µM
- TGI [29]: 46.5 µM
- GI50 [30]: 13.9 µM
- TGI [30]: 35.1 µM
